Experimental data from patent US20230357242A1, “COMPOUND AS AKT KINASE INHIBITOR” (CHIA TAI TIANQING PHARMACEUTICAL GROUP CO., LTD., priority 2020, published 2023).
Where two headings read alike, the source gives them in different places.

Test system: LNcap cells
Assay: Inhibitory effect on proliferation of LNcap cells (CCK-8, 72 h)
Type: cell-based
Conditions: Homo sapiens
Protocol: A dish of LNcap cells (human prostate cancer cells with PTEN deficiency) growing at log phase and in good conditions were taken and digested for 3 min by using 1 mL of pancreatin, then the mixture was added with 4 mL of complete culture medium to terminate digestion, and the cells were added to a centrifuge tube. 20 μL of cells were taken and counted, the required number of cells (mL) was pipetted and centrifuged at 1200 rpm for 5 min, the supernatant was discarded, and an appropriate amount of plating medium (RPMI medium+5% FBS+1% sodium pyruvate+1% glutamine) was added to adjust the cell density to 3×10^4 cells/mL. The cells were seeded on a 96-well plate at 100 μL/well using a multi-channel pipette and cultured in a cell incubator at 37° C., 5% CO2 and saturated humidity. After incubation overnight, compounds were loaded using a nanoliter pipettor, 2 duplicate wells were set for each concentration, and cells without compound were used as negative controls. After 72 h, CCK-8 was added at 10 μL/well for incubation for 4 h, then absorbance was measured at 450 nm with an Envision plate reader, and inhibition rate was calculated. Inhibition rate (%)=(mean value of negative control group−mean value of experimental group)/(mean value of negative control group−mean value of blank group)×100%. A dose-response curve was fitted by four-parameter analysis, with the logarithm of compound concentration as abscissa and inhibition rate as ordinate, so that IC50 was calculated.

[1] = LNCaP, read-out: LNcap cells IC50
[2] = LNcap cells, CCK-8, read-out: LNcap cells IC50

Row | IC50 [2] [nM] | SMILES | IC50 [1] [nM]
1 | – | CC(=O)N1CC[C@@H](N(C)c2cccc(-c3ccc4nc(-c5cccnc5N)n(-c5ccc(C6(N)CCC6)cc5)c4n3)c2)C1 [Compound 7] | 48
2 | – | Nc1ncccc1-c1nc2ccc(-c3cccc(N4CC5(COC5)C4)c3)nc2n1-c1ccc(C2(N)CCC2)cc1 [Compound 13] | 20
3 | – | Nc1ncccc1-c1nc2ccc(-c3cccc(N4CC5COCC5C4)c3)nc2n1-c1ccc(C2(N)CCC2)cc1 (stereo not drawn) [Compound 18] | 18
4 | 15 | Nc1ncccc1-c1nc2ccc(-c3cccc(N4CCCS4(=O)=O)c3)nc2n1-c1ccc(C2(N)CCC2)cc1 [Compound 20] | –
5 | – | CC(=O)N(C)[C@@H]1CCN(c2cccc(-c3ccc4nc(-c5cccnc5N)n(-c5ccc(C6(N)CCC6)cc5)c4n3)c2)C1 [Compound 24] | 41
6 | 14 | CC(=O)N1CC2CN(c3cccc(-c4ccc5nc(-c6cccnc6N)n(-c6ccc(C7(N)CCC7)cc6)c5n4)c3)CC21 (stereo not drawn) [Compound 26] | –
7 | 20 | CC(=O)N(C)C1CCCN(c2cccc(-c3ccc4nc(-c5cccnc5N)n(-c5ccc(C6(N)CCC6)cc5)c4n3)c2)C1 (stereo not drawn) [Compound 27] | –
8 | 46 | CC(=O)N(C)CCN(C)c1cccc(-c2ccc3nc(-c4cccnc4N)n(-c4ccc(C5(N)CCC5)cc4)c3n2)c1 [Compound 29] | –
9 | – | CC(=O)N(C)[C@H]1CCN(c2cccc(-c3ccc4nc(-c5cccnc5N)n(-c5ccc(C6(N)CCC6)cc5)c4n3)c2)C1 [Compound 31] | 28
10 | 14 | CC(=O)N1CC2(CCN(c3cccc(-c4ccc5nc(-c6cccnc6N)n(-c6ccc(C7(N)CCC7)cc6)c5n4)c3F)C2)C1 [Compound 36] | –
11 | 19 | CC(=O)N1C[C@@H]2CN(c3cccc(-c4ccc5nc(-c6cccnc6N)n(-c6ccc(C7(N)CCC7)cc6)c5n4)c3F)C[C@@H]2C1 [Compound 40] | –
12 | 21 | Nc1ncccc1-c1nc2ccc(-c3cccc(N4CCC(N5CCCS5(=O)=O)CC4)c3F)nc2n1-c1ccc(C2(N)CCC2)cc1 [Compound 42] | –
13 | 7.5 | CC1CN(c2cccc(-c3ccc4nc(-c5cccnc5N)n(-c5ccc(C6(N)CCC6)cc5)c4n3)c2F)CCC1N1CCCC1=O (stereo not drawn) [Compound 46] | –
14 | 6.9 | CC1CC(N2CCCC2=O)CCN1c1cccc(-c2ccc3nc(-c4cccnc4N)n(-c4ccc(C5(N)CCC5)cc4)c3n2)c1 (stereo not drawn) [Compound 48] | –
15 | 4 | CN1CC2(CC1=O)CN(c1cccc(-c3ccc4nc(-c5cccnc5N)n(-c5ccc(C6(N)CCC6)cc5)c4n3)c1F)C2 [Compound 49] | –
16 | – | [2H]C([2H])([2H])N(C(C)=O)C1CCN(c2cccc(-c3ccc4nc(-c5cccnc5N)n(-c5ccc(C6(N)CCC6)cc5)c4n3)c2)CC1 [Compound 54] | 2.2

Row | SMILES | IC50 [2] [nM] | IC50 [1] [nM]
17 | CC(=O)N(C)[C@@H]1C[C@H]2CC[C@@H](C1)N2c1cccc(-c2ccc3nc(-c4cccnc4N)n(-c4ccc(C5(N)CCC5)cc4)c3n2)c1 [Compound 43] | 47 | –
18 | CC(=O)N1CC2CC(C1)N2c1cccc(-c2ccc3nc(-c4cccnc4N)n(-c4ccc(C5(N)CCC5)cc4)c3n2)c1F [Compound 47] | 81 | –
